Legend:
in vivo [1] = conditions: Sprague-Dawley, rat, iv, 0.5 mg/kg
in vivo [2] = conditions: Sprague-Dawley, rat, iv, 0.5 mg/kg; remark: listed apart in the source
in vitro [3] = conditions: rat, liver microsomes
in vitro [4] = conditions: human, liver microsomes
in vivo [5] = conditions: Sprague-Dawley, rat, po, 2 mg/kg
in vitro [6] = conditions: pig, LLC-PK1
physchem [7] = conditions: simulated gastric fluid, pH 1.7
[8] = rat, in vivo, iv, 0.5 mg/kg
physchem [9] = conditions: simulated intestinal fluid, pH 6.6
physchem [10] = conditions: simulated intestinal fluid, pH 6.6; remark: listed apart in the source
physchem [11] = conditions: simulated gastric fluid, pH 1.7; remark: listed apart in the source
[12] = Oral bioavailability in CD-1 mouse at 3 mg/kg; type: ADME, organism-based; conditions: in vivo
[13] = Clearance in CD-1 mouse at 1 mg/kg, iv; type: ADME, organism-based; conditions: in vivo
in vivo [14] = conditions: Beagle, dog, po, 2 mg/kg
in vivo [15] = conditions: athymic nude, mouse, plasma, po, 30 mg/kg
[16] = dog, in vivo, iv, 0.5 mg/kg
in vivo [17] = conditions: athymic nude, mouse, plasma, po, 60 mg/kg
in vivo [18] = conditions: Beagle, dog, iv, 0.5 mg/kg
[19] = mouse, in vivo, po, 30 mg/kg, 6 h
[20] = Unbound clearance in CD-1 mouse at 1 mg/kg, iv; type: ADME, organism-based; conditions: in vivo
[21] = rat, in vivo, iv, 0.5 mg/kg; remark: listed apart in the source
[22] = mouse, in vivo, po, 60 mg/kg, 6 h

Row | SMILES | half-life (in vivo [1]) [h] | clearance (in vivo [2]) [mL/min/kg] | microsomal CLint (in vitro [3]) [µL/min/mg] | microsomal CLint (in vitro [4]) [µL/min/mg] | bioavailability (in vivo [5]) [%] | other results
1 | CN1CC/C=C/[C@H](OCCN2CC(F)C2)[C@@H]2CC[C@H]2CN2C[C@@]3(CCCc4cc(Cl)ccc43)COc3ccc(cc32)[C@@](O)(C(=O)NS(=O)(=O)N(C)C)CC1=O | 4.5 | 11.7 | < 14 | < 14 |  | 
2 | COC(=O)[C@@]1(O)CC(=O)N(C)CC/C=C/[C@H](OC)[C@@H]2CC[C@H]2CN2C[C@@]3(CCCc4cc(Cl)ccc43)COc3ccc1cc32 | 2.5 | 43.3 |  |  | 2 | 
3 | CN1CC/C=C/[C@H](OCCN2CCC(F)(F)CC2)[C@@H]2CC[C@H]2CN2C[C@@]3(CCCc4cc(Cl)ccc43)COc3ccc(cc32)[C@@](O)(C(=O)NS(=O)(=O)N(C)C)CC1=O |  |  | < 14 | 43 |  | 
4 | CN(C)C(=O)CO[C@H]1/C=C/CCN(C)C(=O)C[C@](O)(C(=O)NS(=O)(=O)N(C)C)c2ccc3c(c2)N(C[C@@H]2CC[C@H]21)C[C@@]1(CCCc2cc(Cl)ccc21)CO3 | 3.1 | 21.7 | < 14 | 19 |  | 
5 | COC1CN(CCO[C@H]2/C=C/CCN(C)C(=O)C[C@](O)(C(=O)NS(=O)(=O)N(C)C)c3ccc4c(c3)N(C[C@@H]3CC[C@H]32)C[C@@]2(CCCc3cc(Cl)ccc32)CO4)C1 | 6.3 | 58.3 |  |  | 6 | 
6 | CN1CC/C=C/[C@H](OCCOCC(F)F)[C@@H]2CC[C@H]2CN2C[C@@]3(CCCc4cc(Cl)ccc43)COc3ccc(cc32)[C@@](O)(C(=O)NS(=O)(=O)N(C)C)CC1=O | 6.5 | 0.833 |  |  | 41 | 
7 | CN1CC/C=C/[C@H](OCCN2CCOCC2)[C@@H]2CC[C@H]2CN2C[C@@]3(CCCc4cc(Cl)ccc43)COc3ccc(cc32)[C@@](O)(C(=O)NS(=O)(=O)N(C)C)CC1=O | 2.8 | 15 | < 14 | 21 | 9 | 
8 | CO[C@H]1/C=C/CCN(C)C(=O)C[C@](O)(C(=O)O)c2ccc3c(c2)N(C[C@@H]2CC[C@H]21)C[C@@]1(CCCc2cc(Cl)ccc21)CO3 | 6.8 | 23.3 to 23.8 |  |  | 0 | Papp (in vitro [6]): 4.5 ×10⁻⁶ cm/s; remaining at 0.5 h, 1 µM (physchem [7]): 49%; CL [8]: 31%; remaining at 1 h, 1 µM (physchem [9]): 100%; remaining at 0.5 h, 1 µM (physchem [10]): 100%; remaining at 1 h, 1 µM (physchem [11]): 26%
9 | CN1CC/C=C/[C@H](OCCN2CCS(=O)(=O)CC2)[C@@H]2CC[C@H]2CN2C[C@@]3(CCCc4cc(Cl)ccc43)COc3ccc(cc32)[C@@](O)(C(=O)NS(=O)(=O)N(C)C)CC1=O | 2.2 | 60 | < 14 | < 14 | 6 | 
10 | CN1CC/C=C/[C@H](OCCCN2CC(F)(F)C2)[C@@H]2CC[C@H]2CN2C[C@@]3(CCCc4cc(Cl)ccc43)COc3ccc(cc32)[C@@](O)(C(=O)NS(=O)(=O)N(C)C)CC1=O | 5.5 | 3.33 |  |  | 52 | 
11 | CO[C@H]1/C=C/CCN(C)C(=O)C[C@](O)(C(=O)NS(C)(=O)=O)c2ccc3c(c2)N(C[C@@H]2CC[C@H]21)C[C@@]1(CCCc2cc(Cl)ccc21)CO3 | 2.6 | 26.7 |  |  | 8 | 
12 | CO[C@H]1/C=C/C[C@H](C)[C@@H](C)S(=O)(=O)NC(=O)c2ccc3c(c2)N(C[C@@H]2CC[C@H]21)C[C@@]1(CCCc2cc(Cl)ccc21)CO3 [TAPOTOCLAX] | 18.2 | 1 |  |  | 34 | bioavailability [12]: 31%; clearance [13]: 0.5 mL/min/kg; bioavailability (in vivo [14]): 27%; concentration at 6 h (in vivo [15]): 49.3 µM; CL free [16]: 22.3 mL/min/kg; concentration at 6 h (in vivo [17]): 70.9 µM; clearance (in vivo [18]): 0.333 mL/min/kg; Cp(f) [19]: 0.368 µM; CL free [20]: 67 mL/min/kg; remaining at 0.5 h, 1 µM (physchem [7]): 90%; CL free [21]: 138 mL/min/kg; remaining at 1 h, 1 µM (physchem [9]): 81%; Cp(f) [22]: 0.529 µM; remaining at 0.5 h, 1 µM (physchem [10]): 90%; remaining at 1 h, 1 µM (physchem [11]): 84%

— ChEMBL document CHEMBL4354823, “Discovery and in Vivo Evaluation of Macrocyclic Mcl-1 Inhibitors Featuring an α-Hydroxy Phenylacetic Acid Pharmacophore or Bioisostere” (J Med Chem, 2019)
